Laboratory results taken from patent US20250120420A1, “FEED ADDITIVE FOR IMPROVING ANIMAL PERFORMANCE, DIGESTION AND INTESTINAL HEALTH AND RELATED METHODS” (priority 2023, published 2025).
Marks after values point to notes of the source that are not given here.

Experiments:
laying hens = experiment: Laying hen trial, two-by-two factorial xylanase / COS, 60 days; type: in vivo, HiSex laying hens
Description: The researchers combined xylanase and COS in a two-by-two factorial design study in order to investigate the impact of combining xylanase and COS on animal intestinal health, and specifically the microbiome. Materials and Methods: The effects of dietary supplementation of a combination of xylanase/COS (prototype or “[…]”) were evaluated in a laying hen trial over a duration of 60 days. A total of 40 HiSex laying hens were used in this experiment, with four diets and 10 replicates per diet. Dosages were determined based on extrapolation of the in vitro cell culture data. Laying hens were allocated into four different groups: (T1) Control; […] (T3) xylanase alone, using […] Industries, Inc.); (T4) and a combination of xylanase and COS. The diets were based on wheat ( 55%), soybean and sunflower meal.

broilers = experiment: Broiler trial, xylanase/COS dose response, 35 days, zootechnical performance; type: in vivo
Description: The researchers performed a study in growing poultry, in which xylanase and COS were combined in a dose response study in order to study the impact of combining xylanase and COS on poultry growth.
Materials and Methods: The effects of dietary supplementation of a combination of xylanase/COS were evaluated in a broiler trial over a duration of 35 days. A total of 1200 Ross broilers were used in this experiment, with five diets and 12 replicates per diet.

[1] = Grower phase, 15-35 days of age
[2] = Starter phase, 0-14 days of age

## beta 1-4, endo-xylanase enzyme [Xygest HT]
Laying hens; End of Phase 1
  Albumin Height: 7.1 a mm
  Egg Shell Thickness: 0.397 a mm
  Haugh Unit (HU): 84.3 a
  Shell Breaking Strength: 4.6 a kg · force
  Yolk Color Score (DSM method): 5.3 a
  Yolk Diameter: 43.2 mm
  Yolk Height: 18.7 mm
  Yolk Index: 0.44
Laying hens; End of Phase 2
  Albumin Height: 7.9 a mm
  Egg Shell Thickness: 0.428 a mm
  Haugh Unit (HU): 88.7 a
  Shell Breaking Strength: 4.7 ab kg · force
  Yolk Color Score (DSM method): 6.7 a
  Yolk Diameter: 44.2 mm
  Yolk Height: 18.3 ab mm
  Yolk Index: 0.42 a
Laying hens; laying hens, 60 days
  Egg mass, % Improvement compared to the control treatment: 0.91%
  Egg weight, % Improvement compared to the control treatment: 0.58%
  FCR, % Improvement compared to the control treatment: −0.07%
  laying percentage compared to the control group (in words): significant increase
  nutrient digestibility (in words, FIG. 6-11): Even a better effect
broilers; Global trial, 0-35 days of age
  ADFI: 87.2 g/day
  FCR: 1.51^ab
  M-ADFI (mortality adjusted mean daily feed intake): 86.8 g/day
  M-ADG (mortality adjusted mean daily gain): 57.5^a g/d
  M-FCR (Mortality adjusted feed:gain): 1.51^ab
broilers; [1]
  ADFI: 123.7 g/day
  ADG: 80.0^a g/d
  FCR: 1.55^ab
  M-ADFI (mortality adjusted mean daily feed intake): 123.3 g/day
  M-ADG (mortality adjusted mean daily gain): 79.9^a g/d
  M-FCR (Mortality adjusted feed:gain): 1.54^ab
broilers; [2]
  ADFI: 32.9 g/day
  ADG: 24.5 g/day
  FCR: 1.35
  M-ADFI (mortality adjusted mean daily feed intake): 32.8 g/day
  M-ADG (mortality adjusted mean daily gain): 24.4 g/day
  M-FCR (Mortality adjusted feed:gain): 1.34^ab
broilers; broilers, 14 days of age
  Body weight: 386 g
